We go through one compound from patent publication US11759461B2, “Small molecule inhibitors of cancer stem cells and mesenchymal cancer types” (The Scripps Research Institute, priority 2017, dated 2023).

The test system of assay [1] is FOXC2-expressing HMLER cells. Kind of assay: Cell Titer Glo viability of FOXC2-HMLER cells (high throughput screen and 10-point response). The conditions noted are these: Homo sapiens. Type of assay: cell-based. The procedure, abridged:
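FOXC2-HMLER cells (HMLER run in parallel) seeded at 1,000 cells/well in MEGM, attached 1 h, then given compound in DMSO (2 μM in the screen). After 72 h, viability was read by Cell Titer Glo luminescence.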

For a further assay, the system named is control HMLER cells. Description: Cell Titer Glo viability of control HMLER cells. The conditions noted are these: Homo sapiens; 72-hour incubation; read-out: HMLER IC50. Type of assay: cell-based. The source says: An engineered cancer cell line HMLER as an isogenic screening system was employed to identify compounds that are selectively toxic to the FOXC2 positive genotype. HMLER cells are derived from mammary epithelial cells (HMECs), but are virally transformed with the […] oncogene (G12V), human telomerase reverse transcriptase (hTERT), and SV40 large-T antigen (B. Elenbaas, B. et al. Genes Dev. 15 (2001) 50-65). Expression of these genes endows HMLER cells with functional immortality and tumorigenic potential at high seeding number (>10^6 cells; Hollier (2013)). […]
For high throughput screening, FOXC2-HMLER and HMLER cells were plated at 10^3 cells per well in white 384-well plates in 50 μL of MEGM medium (Lonza). […] After 72-hour incubation, 30 μL of a Cell Titer Glo solution (diluted 1:6 in water, Promega) was dispensed into each well and luminance values were recorded using an Envision plate reader. […]
More specifically, in the high throughput screening assay above, each cell line was plated at 1,000 cells per well in 384-well plates, treated for 72 hours with 2 μM of test compound, and the viability of each line was determined in parallel by Cell Titer Glo (Promega) luminance measurements. […]

The subject of assay [2] is FOXC2-HMLER, SNAIL-HMLER, SUM159, and MDA-MB-231 cells. Kind of assay: In vitro mammosphere formation assay. Type of assay: cell-based, human. The settings on record: 1 μM compound during assay (14 days). The procedure:
FIG. 3: Quantification of mammospheres from an in vitro mammosphere formation assay with the indicated cell types. Pretreatment indicates a 72-hour treatment with 1 μM Compound 1 before plating in mammosphere formation conditions. The expression “during assay” indicates 1 μM compound treatment during the mammosphere assay (14 days) (n=3, mean and s.d.).
Epithelial-mesenchymal transition (EMT) induction endows breast cancer cells with the ability to grow as mammospheres in culture (Mani (2008)).

A further assay relates to FOXC2-HMLER cells. Kind of assay: Confocal imaging of thymidine synced FOXC2-HMLER cells at metaphase. Type of assay: cell-based, human. The source says:
Because Compound 1 induces a hyper-phosphorylated VIM phenotype, we sought to determine if Compound 1's engagement of VIM might interfere at an alternative stage of mitosis. We therefore performed time course confocal imaging studies of Compound 1 treated FOXC2-HMLER cells after their release from thymidine blocking-based cell cycle synchronization.
Compound 1 treatment also disrupted the ability of β-tubulin to faithfully form the fine spindle microtubules of the mitotic spindle, instead resulting in a compressed phenotype with radiating projections connecting unaligned chromosomes. To assess the uniqueness of this phenotype, we evaluated the metaphase phenotypes of other chemical inhibitors which have shown to alter mitotic progression. These included inhibitors of centromere-associated protein E (CENP-E, also called kinesin-7, GSK92395), kinesin spindle protein (KSP, also called Eg5, Ispinesib), polo like kinases (PLK1/2/3, BI2536), and aurora kinases (AURKA/B/C, VX-680).

pIC50: −log10 of the molar value. Where two headings read alike, the source gives them in different places. A value given as a limit tells only on which side of the number the result lay.

Regarding `Clc1cccc(N2CCN(c3cnnc4c(Cl)cccc34)CC2)c1` [Compound 1, 8-chloro-4-(4-(3-chlorophenyl)piperazin-1-yl)cinnoline], the pIC50 in assay [1] (72-hour incubation, read-out: FOXC2-HMLER IC50) was 6.63; in assay [1] (scored relative to parent compound 1, 72 hours, read-out: Activity Score, inhibition of FOXC2-expressing HMLER cells by Formula I compounds), greater than 6.00; with control HMLER cells, less than 4.70. Further, in assay [2], the “ability to form mammospheres in culture” value was “inhibited the ability”. Besides, the “VIM filamentous structure at metaphase” value in the assay with FOXC2-HMLER cells was “collapsed VIM filamentous structure”. Besides, the “chromosome alignment to the metaphase plate” value in the assay on FOXC2-HMLER cells is on record as “inhibited the ability of chromosomes to align to the metaphase plate”.
